Experimental data reported in EP1964555A1, “PHARMACEUTICAL CO[…] INHIBIT THE REUPTAKE OF NORADRENALINE, DOPAMINE AND SEROTONIN, WHICH ARE COMBINED WITH AN AMINO ACID FOR THE TREATMENT OF OBESITY AND OVERWEIGHT” (Espinosa Abdala, Leopoldo de Jesús, priority 2005, dated 2007).

How the values were obtained:
[1] = Example 2: randomized, double-blind, crossover study in patients with severe obesity and dyslipidemia; format: in vivo; conditions: 4 weeks per treatment
Experimental: A randomized, double-blind and crossover study was made in order to assess the reliability and effectiveness of the combination Sibutramine-Carnitine in patients with obesity and/or overweight suffering from dyslipidemia. 80 individuals were included in the study with a BMI higher than 35 kg/m^2 diagnosed with severe obesity, with alteration in the profile of lipids which total cholesterol figures was higher than 200 mg/dl.
Combined Sibutramine-carnitine was administered for 4 weeks and subsequently sibutramine alone and carnitine alone for another 4 weeks.

[2] = tested on: human plasmatic proteins; conditions: plasma; cited from earlier work
[3] = cited from earlier work; for plasma rates: after administration of indicated Sibutramine therapeutic doses; for time for plasma concentrations to reach the stable state: during treatment; for detection in urine: in vivo; for maximum plasma concentration [Tmax]: time after administration; for effect of food on Tmax / effect of food on maximum concentrations: with food
[4] = single dose, within a 15-day period

| Compound | reduction of BMI ([1]; BMI higher than 35 kg/m^2, total cholesterol higher than 200 mg/dl, combination compared to sibutramine alone) | attachment to human plasmatic proteins [2] | plasma rates [3] | time for plasma concentrations to reach the stable state [3] | detection in urine [3] | maximum plasma concentration [Tmax] [3] | effect of food on Tmax [3] | effect of food on maximum concentrations [3] | share expelled through urine [3, 4] | share of dose expelled through urine and feces [3, 4] | cholesterol and triglycerides levels ([1]; compared to the admission visit) |
| --- | --- | --- | --- | --- | --- | --- | --- | --- | --- | --- | --- |
| C[N+](C)(C)CC(O)CC(=O)[O-] (stereo not shown) [carnitine, Carnitine] | no significant differences | – | – | – | – | – | – | – | – | – | – |
| CNC(CC(C)C)C1(c2ccc(Cl)cc2)CCC1 (stereo not shown) [M1, mono-desmetilsibutramina] | – | 94% | 6% | four | not detected | ~3 h | delay | decreases | – | – | – |
| CC(C)CC(N(C)C)C1(c2ccc(Cl)cc2)CCC1 (stereo not shown) [Sibutramine] | – | 97% | 3% | – | not detected | 1.2 h | – | – | 77% | About 85% | frank progressive reduction |
| CC(C)CC(N)C1(c2ccc(Cl)cc2)CCC1 (stereo not shown) [M2, di-desmetil-sibutramina] | – | 94% | 12% | four | not detected | ~4 h | delay | decreases | – | – | – |
